In patent US5220018A, “Cholecystokinin antagonists” (Merck & Co., Inc., priority 1992, dated 1993) one finds IC50 data, which are given here for 20 compounds.

One assay addresses T1, CCK Receptor (Pancreas) (Rattus norvegicus, UniProt P30551).
T1 construct: The whole pancreas was dissected free of fat tissue and was homogenized; from tissue; host or cells: rat whole pancreas, homogenate membranes
T1 sequence (P30551 1-444): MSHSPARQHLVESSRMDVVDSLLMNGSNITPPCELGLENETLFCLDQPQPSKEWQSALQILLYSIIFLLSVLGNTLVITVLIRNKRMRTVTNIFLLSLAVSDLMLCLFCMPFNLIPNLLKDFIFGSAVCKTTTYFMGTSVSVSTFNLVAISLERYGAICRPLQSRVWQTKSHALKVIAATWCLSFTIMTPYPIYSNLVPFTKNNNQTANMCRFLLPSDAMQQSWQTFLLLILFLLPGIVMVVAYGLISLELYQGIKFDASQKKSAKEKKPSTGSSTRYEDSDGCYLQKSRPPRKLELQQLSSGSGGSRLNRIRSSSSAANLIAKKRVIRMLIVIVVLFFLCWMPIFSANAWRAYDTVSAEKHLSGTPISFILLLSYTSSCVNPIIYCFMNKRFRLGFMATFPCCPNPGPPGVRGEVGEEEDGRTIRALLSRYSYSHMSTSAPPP
Put plainly: biochemical. It counts as binding, Male Sprague-Dawley rats. As to the method: 1. CCK Receptor Binding (Pancreas)
CCK-8 sulphated was radiolabelled with ^125 I-Bolton Hunter reagent (2000 Ci/mmole). Receptor binding was performed according to Chang and Lotti (Proc. Natl. Acad. Sci. 83, 4923-4926, 1986) with minor modifications.
Male Sprague-Dawley rats (150-200 g) were sacrificed by decapitation. The whole pancreas was dissected free of fat tissue and was homogenized in 25 volumes of ice-cold 10 mM Hepes buffer with 0.1% soya bean trypsin inhibitor (pH 7.4 at 25° C.) with a Kinematica Polytron. The homogenates were centrifuged at 47,800 g for 10 min. Pellets were resuspended in 10 volumes of binding assay buffer (20 mM Hepes, 1 mM EGTA, 5 mM MgCl2, 150 mM NaCl, bacitracin 0.25 mg/ml, soya bean trypsin inhibitor 0.1 mg/ml, and bovine serum albumin 2 mg/ml, pH 6.5 at 25° C.) using a teflon homogenizer, 15 strokes at 500 rpm. The homogenate was further diluted in binding assay buffer to give a final concentration of 0.5 mg original wet weight/1 ml buffer. […] All assays were run in duplicate. The reaction mixtures were incubated at 25° C. for 2 hours and the reaction terminated by rapid filtration (Brandell 24 well cell harvester) over Whatman GF/C filters, washing 3×4 mls with ice-cold 100 mM NaCl. The radioactivity on the filters was counted with a LKB gamma counter.
(§1) Drug displacement studies were performed with at least 10 concentrations of compounds of formula 1 and the IC50 values were determined by regression analysis.

The target of the next assay is T2, CCK Receptor (Brain) (Cavia porcellus, UniProt H0VZC5).
T2 construct: the cortex was removed and homogenized in 25 mL ice-cold 0.32M sucrose; from tissue; host or cells: guinea pig cerebral cortex, P2 membrane pellet
T2 sequence (H0VZC5 1-426): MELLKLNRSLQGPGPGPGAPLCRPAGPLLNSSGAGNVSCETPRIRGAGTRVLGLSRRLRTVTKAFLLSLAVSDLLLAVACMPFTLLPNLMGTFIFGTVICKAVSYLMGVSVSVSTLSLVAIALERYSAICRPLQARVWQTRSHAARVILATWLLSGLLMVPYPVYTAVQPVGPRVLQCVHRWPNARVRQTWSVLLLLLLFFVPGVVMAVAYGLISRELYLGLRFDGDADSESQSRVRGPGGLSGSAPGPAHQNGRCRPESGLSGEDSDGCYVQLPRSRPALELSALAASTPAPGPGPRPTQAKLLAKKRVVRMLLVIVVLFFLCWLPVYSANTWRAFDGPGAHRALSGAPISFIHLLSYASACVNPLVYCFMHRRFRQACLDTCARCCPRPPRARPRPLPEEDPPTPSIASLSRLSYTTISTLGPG
The experiment in a line: CCK Receptor Binding (Brain), inhibition of 125I-CCK-8 binding. Also on record: species or system Male Hartley guinea pigs. The protocol: 2. CCK Receptor Binding (Brain)
CCK-8 sulphated was radiolabelled and the binding was performed according to the description for the pancreas method with minor modifications.
Male Hartley guinea pigs (300-500 g) were sacrificed by decapitation and the cortex was removed and homogenized in 25 mL ice-cold 0.32M sucrose. The homogenates were centrifuged at 1000 g for 10 minutes and the resulting supernatant was recentrifuged at 20,000 g for 20 minutes. […] All assays were run in duplicate. The reaction mixtures were incubated at 25° C. for 2 hours and then the reaction was terminated on Whatman GF/C filters by rapid filtration (Brandell 24 well cell Harvester) with 3×5 ml washes of cold 100 mM NaCl. The radioactivity on the filters was then counted with a LKB gamma counter.
as §1

[1] abbreviates: rat pancreas membranes, 125I-CCK-8 50 pM, 25° C., 2 hours, read-out: IC50, 125I-CCK Pancreas.
[2] abbreviates: guinea pig cortex membranes, 125I-CCK-8 50 pM, 25° C., 2 hours, read-out: IC50, 125I-CCK Brain.

pIC50: −log10 of the molar value. Where two headings read alike, the source gives them in different places.

As usually defined, the pIC50 is −log10 of the IC50, conventionally taken in molar units.

As to `CC(C)CN1C(=O)C(NC(=O)Nc2cccc(-c3nnn[nH]3)c2)N=C(c2ccccc2F)c2ccccc21` (racemic) [Example 21, N-[3(R,S)-2,3-Dihydro-5-(2-fluorophenyl)-1-(2-methylpropyl)-2-oxo-1H-1,4-benzodiazepin-3-yl]-N'-{[3-(tetrazol-5-yl)phenyl]urea}], the pIC50 on CCK Receptor (Pancreas) (setting [1]) is 6.82; at CCK Receptor (Brain) (setting [2]), 8.85.

For the compound `CCN1C(=O)C(NC(=O)Nc2cccc(-c3nnn[nH]3)c2)N=C(c2ccccc2)c2ccccc21` (stereo not shown) [Example 3, N-{1,3-Dihydro-1-ethyl-2-oxo-5-phenyl-1H-1,4-benzodiazepin-3-yl}-N'-{[3-(1H-tetrazol-5-yl)phenyl]urea}], the pIC50 is 7.54 against CCK Receptor (Pancreas) and 8.80 at CCK Receptor (Brain) (setting [2]).

For the compound `CC(C)N1C(=O)C(NC(=O)Nc2cccc(-c3nnn[nH]3)c2)N=C(c2ccccc2)c2ccccc21` (stereo not shown) [Example 4, N-{1,3-Dihydro-1-[2-propyl]-2-oxo-5-phenyl-1H-1,4-benzodiazepin-3-yl}-N'-{[3-(1H-tetrazol-5-yl)phenyl]urea}], the pIC50 was 6.70 on CCK Receptor (Pancreas) (setting [1]) and 8.39 at CCK Receptor (Brain) (setting [2]).

For the compound `CN1C(=O)[C@H](NC(=O)Nc2ccc(Cl)nc2)N=C(c2ccccc2)c2ccccc21` [Example 5, N-{1,3-Dihydro-1-methyl-2-oxo-5-phenyl-1H-1,4-benzodiazepin-3-yl}-N'-{[5-(2-chloro)pyridyl]urea}], the pIC50 was less than 5.52 at CCK Receptor (Pancreas) (setting [1]) and 7.34 on CCK Receptor (Brain).

For the compound `COc1ccc(NC(=O)N[C@@H]2N=C(c3ccccc3)c3ccccc3N(C)C2=O)cn1` [Example 6, N-{1,3-Dihydro-1-methyl-2-oxo-5-phenyl-1H-1,4-benzodiazepin-3-yl}-N'-{[5-(2-methoxy)pyridyl]urea}], the pIC50 at CCK Receptor (Pancreas) (setting [1]) is 5.70; at CCK Receptor (Brain) (setting [2]), 7.32.

On to `CN1C(=O)[C@H](NC(=O)Nc2cccc(C#N)c2)N=C(c2ccccc2)c2ccccc21` [Example 7, N-{1,3-Dihydro-1-methyl-2-oxo-5-phenyl-1H-1,4-benzodiazepin-3-yl}-N'-{[3-(cyano)phenyl]urea}], for which the figures for the pIC50 at CCK Receptor (Pancreas) (setting [1]) and on CCK Receptor (Brain) (setting [2]) were 5.51 and 7.57, respectively.

As to `CC(=O)c1cccc(NC(=O)N[C@@H]2N=C(c3ccccc3)c3ccccc3N(C)C2=O)c1` [Example 8, N-{1,3-Dihydro-1-methyl-2-oxo-5-phenyl-1H-1,4-benzodiazepin-3-yl}-N'-{[3-(acetyl)phenyl]urea}], the pIC50 on CCK Receptor (Pancreas) (setting [1]) was 5.92; at CCK Receptor (Brain) (setting [2]), 8.44.

Regarding `CN1C(=O)[C@H](NC(=O)Nc2cccc(N)c2)N=C(c2ccccc2)c2ccccc21` [Example 9, N-{1,3-Dihydro-1-methyl-2-oxo-5-phenyl-1H-1,4-benzodiazepin-3-yl}-N'-{[3-(amino)phenyl]urea}], the results for the pIC50 on CCK Receptor (Pancreas) (setting [1]) and at CCK Receptor (Brain) (setting [2]) were less than 5.52 and 7.48, respectively.

In the case of `CN1C(=O)[C@H](NC(=O)Nc2cccc(C(N)=O)c2)N=C(c2ccccc2)c2ccccc21` [Example 10, N-{1,3-Dihydro-1-methyl-2-oxo-5-phenyl-1H-1,4-benzodiazepin-3-yl}-N'-{[3-(aminocarbonyl)phenyl]urea}], the pIC50 at CCK Receptor (Pancreas) (setting [1]) is 5.87; at CCK Receptor (Brain) (setting [2]) it was 7.55.

For `COP(=O)(Nc1cccc(NC(=O)N[C@@H]2N=C(c3ccccc3)c3ccccc3N(C)C2=O)c1)OC` [Example 11, N-{1,3-Dihydro-1-methyl-2-oxo-5-phenyl-1H-1,4-benzodiazepin-3-yl}-N'-{[3-(dimethylphosphoramido)phenyl]urea}], the results for the pIC50 on CCK Receptor (Pancreas) (setting [1]) and on CCK Receptor (Brain) (setting [2]) were 6.52 and 7.00, respectively.

On to `CN1C(=O)[C@H](NC(=O)Nc2cccc(NS(N)(=O)=O)c2)N=C(c2ccccc2)c2ccccc21` [Example 12, N-{1,3-Dihydro-1-methyl-2-oxo-5-phenyl-1H-1,4-benzodiazepin-3-yl}-N'-{[3-(aminosulfonamido)phenyl]urea}], for which the pIC50 on CCK Receptor (Pancreas) (setting [1]) was 6.28; at CCK Receptor (Brain) (setting [2]), 7.49.

With `CN1C(=O)[C@H](NC(=O)Nc2ccc3[nH]nnc3c2)N=C(c2ccccc2)c2ccccc21` [Example 13], the pIC50 against CCK Receptor (Pancreas) was 5.82; on CCK Receptor (Brain) (setting [2]), 7.72.

As for `CN1C(=O)[C@H](NC(=O)Nc2cccc(S(N)(=O)=O)c2)N=C(c2ccccc2)c2ccccc21` [Example 14, N-{1,3-Dihydro-1-methyl-2-oxo-5-phenyl-1H-1,4-benzodiazepin-3-yl}-N'-{[3-(aminosulfonyl)phenyl]urea}], the pIC50 on CCK Receptor (Pancreas) (setting [1]) is 5.36; at CCK Receptor (Brain) (setting [2]) it was 7.13.

With `CN1C(=O)[C@H](NC(=O)Nc2cccc(B(O)O)c2)N=C(c2ccccc2)c2ccccc21` [Example 15, N-{1,3-Dihydro-1-methyl-2-oxo-5-phenyl-1H-1,4-benzodiazepin-3-yl}-N'-{[3-phenylboronyl]urea}], the pIC50 was 6.38 on CCK Receptor (Pancreas) (setting [1]) and 8.02 on CCK Receptor (Brain) (setting [2]).

Take `CC(=O)NS(=O)(=O)c1cccc(NC(=O)N[C@@H]2N=C(c3ccccc3)c3ccccc3N(C)C2=O)c1` [Example 16, N-{1,3-Dihydro-1-methyl-2-oxo-5-phenyl-1H-1,4-benzodiazepin-3-yl}-N'-{[3-(acetylaminosulfonyl)phenyl]urea}]: the pIC50 on CCK Receptor (Pancreas) (setting [1]) is less than 5.52; on CCK Receptor (Brain) (setting [2]), 8.41.

In the case of `CN1C(=O)[C@H](NC(=O)Nc2cccc(Cc3nnn[nH]3)c2)N=C(c2ccccc2)c2ccccc21` [Example 17, N-{1,3-Dihydro-1-methyl-2-oxo-5-phenyl-1H-1,4-benzodiazepin-3-yl}-N'-{[3-((1H-tetrazol-5-yl)methyl)phenyl]urea}], the pIC50 at CCK Receptor (Pancreas) (setting [1]) was 5.74; on CCK Receptor (Brain) (setting [2]) it was 8.32.

Regarding `CCCN1C(=O)[C@H](NC(=O)Nc2cccc(-c3nnn[nH]3)c2)N=C(c2ccccc2)c2ccccc21` [Example 18, N-{1,3-Dihydro-1-n-propyl-2-oxo-5-phenyl-1H-1,4-benzodiazepin-3-yl}-N'-{[3-(1H-tetrazol-5-yl)phenyl]urea}], the pIC50 at CCK Receptor (Pancreas) (setting [1]) was 5.96; at CCK Receptor (Brain) (setting [2]) it was 10.17.

Regarding `CC[C@H](C)CN1C(=O)[C@H](NC(=O)Nc2cccc(-c3nnn[nH]3)c2)N=C(c2ccccc2)c2ccccc21` [Example 19, N-{1,3-Dihydro-1-[2-(S)-methylbutyl]-2-oxo-5-phenyl-1H-1,4-benzodiazepin-3-yl}-N'-{[3-(1H-tetrazol-5-yl)phenyl]urea}], the pIC50 on CCK Receptor (Pancreas) (setting [1]) is 6.30; at CCK Receptor (Brain) (setting [2]), 9.60.

Consider `O=C(Nc1cccc(-c2nnn[nH]2)c1)N[C@@H]1N=C(c2ccccc2)c2ccccc2N(CC2CC2)C1=O` [Example 20, N-{1,3-Dihydro-1-cyclopropylmethyl-2-oxo-5-phenyl-1H-1,4-benzodiazepin-3-yl}-N'-{[3-(1H-tetrazol-5-yl)phenyl]urea}], for which the pIC50 on CCK Receptor (Pancreas) (setting [1]) was 3.06; on CCK Receptor (Brain) (setting [2]), 9.40.

With `CC(=O)NC(=O)c1cccc(NC(=O)N[C@@H]2N=C(c3ccccc3)c3ccccc3N(C)C2=O)c1` [Example 22, N-{1,3-Dihydro-1-methyl-2-oxo-5-phenyl-1H-1,4-benzodiazepin-3-yl}-N'-{[3-(N-acetylcarboxamido)phenyl]urea}], the negative logarithm of the IC50 (pIC50) on CCK Receptor (Pancreas) (setting [1]) is 5.42; at CCK Receptor (Brain) (setting [2]) it was 7.26.
